How the values were obtained:
[1] = target: Serine/threonine-protein kinase N1 (Homo sapiens) (UniProt Q16512); experiment: Inhibition of wild-type human partial length PKN1 (E598 to C948 residues) expressed in bacterial expression system assessed as residual activity at 1 uM by Kinomescan method relative to control
[2] = system: Phosphatidylinositol 4,5-bisphosphate 3-kinase catalytic subunit alpha isoform (Homo sapiens), P42336 [E545K]; experiment: Inhibition of human partial length PIK3CA E545K mutant (R108 to N1068 residues) expressed in mammalian expression system assessed as residual activity at 1 uM by Kinomescan method relative to control
[3] = target: Serine/threonine-protein kinase WNK4 (Homo sapiens) (UniProt Q96J92); experiment: Inhibition of wild-type human partial length WNK4 (A31 to D461 residues) expressed in mammalian expression system assessed as residual activity at 1 uM by Kinomescan method relative to control
[4] = target: Calcium/calmodulin-dependent protein kinase type IV (Homo sapiens) (UniProt Q16566); experiment: Inhibition of wild-type human partial length CAMK4 (A22 to A322 residues) expressed in bacterial expression system assessed as residual activity at 1 uM by Kinomescan method relative to control
[5] = target: Tyrosine-protein kinase JAK3 (Homo sapiens) (UniProt P52333); experiment: Inhibition of wild-type human partial length JAK3 JH1 catalytic domain (I781 to S1124 residues) expressed in mammalian expression system assessed as residual activity at 1 uM by Kinomescan method relative to control
[6] = target: Phosphatidylinositol 4-phosphate 3-kinase C2 domain-containing subunit beta (Homo sapiens) (UniProt O00750); experiment: Inhibition of wild-type human partial length PIK3C2B (M1 to L1634 residues) expressed in mammalian expression system assessed as residual activity at 1 uM by Kinomescan method relative to control
[7] = system: Mast/stem cell growth factor receptor Kit (Homo sapiens), P10721 [V559D,T670I]; experiment: Inhibition of human partial length KIT V559D/T670I double mutant (Y545 to D952 residues) expressed in bacterial expression system assessed as residual activity at 1 uM by Kinomescan method relative to control
[8] = target: Non-receptor tyrosine-protein kinase TNK1 (Homo sapiens) (UniProt Q13470); experiment: Inhibition of wild-type human full length TNK1 (M1 to P661 residues) expressed in bacterial expression system assessed as residual activity at 1 uM by Kinomescan method relative to control
[9] = target: Serine/threonine-protein kinase Sgk3 (Homo sapiens) (UniProt Q96BR1); experiment: Inhibition of wild-type human partial length SGK3 (M119 to L496 residues) expressed in mammalian expression system assessed as residual activity at 1 uM by Kinomescan method relative to control
[10] = system: Phosphatidylinositol 4,5-bisphosphate 3-kinase catalytic subunit alpha isoform (Homo sapiens), P42336 [H1047L]; experiment: Inhibition of human partial length PIK3CA H1047L mutant (R108 to N1068 residues) expressed in mammalian expression system assessed as residual activity at 1 uM by Kinomescan method relative to control
[11] = target: Serine/threonine-protein kinase RIO2 (Homo sapiens) (UniProt Q9BVS4); experiment: Inhibition of wild-type human partial length RIOK2 (M1 to D313 residues) expressed in mammalian expression system assessed as residual activity at 1 uM by Kinomescan method relative to control
[12] = target: Tyrosine-protein kinase ZAP-70 (Homo sapiens) (UniProt P43403); experiment: Inhibition of wild-type human partial length ZAP70 (D20 to G299 residues) expressed in mammalian expression system assessed as residual activity at 1 uM by Kinomescan method relative to control
[13] = target: Cyclin-dependent kinase 2 homolog (Plasmodium falciparum (isolate 3D7)) (UniProt P61075); experiment: Inhibition of wild-type Plasmodium falciparum isolate 3D7 full length PK5 (M1 to N288 residues) expressed in mammalian expression system assessed as residual activity at 1 uM by Kinomescan method relative to control
[14] = target: Receptor-type tyrosine-protein kinase FLT3 (Homo sapiens) (UniProt P36888); experiment: Inhibition of wild-type human partial length autoinhibited FLT3 (H564 to Y969 residues) expressed in mammalian expression system assessed as residual activity at 1 uM by Kinomescan method relative to control
[15] = target: AP2-associated protein kinase 1 (Homo sapiens) (UniProt Q2M2I8); experiment: Inhibition of human wild-type AAK1 (G25 to L333 residues) expressed in bacterial expression system assessed as residual activity at 1 uM by Kinomescan method relative to control
[16] = target: Vascular endothelial growth factor receptor 1 (Homo sapiens) (UniProt P17948); experiment: Inhibition of wild-type human partial length FLT1 (R781 to F1239 residues) expressed in bacterial expression system assessed as residual activity at 1 uM by Kinomescan method relative to control
U2932 = experiment: Growth inhibition of human U2932 cells; type: functional; settings: Homo sapiens, U2932
[17] = target: Mitogen-activated protein kinase kinase kinase kinase 3 (Homo sapiens) (UniProt Q8IVH8); experiment: Inhibition of wild-type human partial length MAP4K3 (M1 to D301 residues) expressed in bacterial expression system assessed as residual activity at 1 uM by Kinomescan method relative to control
[18] = target: Activin receptor type-1 (Homo sapiens) (UniProt Q04771); experiment: Inhibition of wild-type human ACVR1 (C188 to C509 residues) expressed in bacterial expression system assessed as residual activity at 1 uM by Kinomescan method relative to control
[19] = target: Tyrosine-protein kinase Lck (Homo sapiens) (UniProt P06239); experiment: Inhibition of wild-type human partial length LCK (R207 to P509 residues) expressed in bacterial expression system assessed as residual activity at 1 uM by Kinomescan method relative to control
[20] = target: Serine/threonine-protein kinase PAK 2 (Homo sapiens) (UniProt Q13177); experiment: Inhibition of wild-type human partial length PAK2 (P151 to R525 residues) expressed in bacterial expression system assessed as residual activity at 1 uM by Kinomescan method relative to control
[21] = system: Serine/threonine-protein kinase B-raf (Homo sapiens), P15056 [V600E]; experiment: Inhibition of human partial length BRAF V600E mutant (S429 to E741 residues) expressed in mammalian expression system assessed as residual activity at 1 uM by Kinomescan method relative to control
[22] = target: Serine/threonine-protein kinase Nek10 (Homo sapiens) (UniProt Q6ZWH5); experiment: Inhibition of wild-type human partial length NEK10 (L488 to R809 residues) expressed in mammalian expression system assessed as residual activity at 1 uM by Kinomescan method relative to control
[23] = target: Serine/threonine-protein kinase TBK1 (Homo sapiens) (UniProt Q9UHD2); experiment: Inhibition of wild-type human full length TBK1 (M1 to L729 residues) expressed in mammalian expression system assessed as residual activity at 1 uM by Kinomescan method relative to control
[24] = system: Tyrosine-protein kinase ABL1 (Homo sapiens), P00519 [F317L]; experiment: Inhibition of human phosphorylated ABL1 F317L mutant (S229 to K512 residues) expressed in mammalian expression system assessed as residual activity at 1 uM by Kinomescan method relative to control

Vascular endothelial growth factor receptor 1 (Homo sapiens), sequence (P17948 whole entry, the tested form may be a part): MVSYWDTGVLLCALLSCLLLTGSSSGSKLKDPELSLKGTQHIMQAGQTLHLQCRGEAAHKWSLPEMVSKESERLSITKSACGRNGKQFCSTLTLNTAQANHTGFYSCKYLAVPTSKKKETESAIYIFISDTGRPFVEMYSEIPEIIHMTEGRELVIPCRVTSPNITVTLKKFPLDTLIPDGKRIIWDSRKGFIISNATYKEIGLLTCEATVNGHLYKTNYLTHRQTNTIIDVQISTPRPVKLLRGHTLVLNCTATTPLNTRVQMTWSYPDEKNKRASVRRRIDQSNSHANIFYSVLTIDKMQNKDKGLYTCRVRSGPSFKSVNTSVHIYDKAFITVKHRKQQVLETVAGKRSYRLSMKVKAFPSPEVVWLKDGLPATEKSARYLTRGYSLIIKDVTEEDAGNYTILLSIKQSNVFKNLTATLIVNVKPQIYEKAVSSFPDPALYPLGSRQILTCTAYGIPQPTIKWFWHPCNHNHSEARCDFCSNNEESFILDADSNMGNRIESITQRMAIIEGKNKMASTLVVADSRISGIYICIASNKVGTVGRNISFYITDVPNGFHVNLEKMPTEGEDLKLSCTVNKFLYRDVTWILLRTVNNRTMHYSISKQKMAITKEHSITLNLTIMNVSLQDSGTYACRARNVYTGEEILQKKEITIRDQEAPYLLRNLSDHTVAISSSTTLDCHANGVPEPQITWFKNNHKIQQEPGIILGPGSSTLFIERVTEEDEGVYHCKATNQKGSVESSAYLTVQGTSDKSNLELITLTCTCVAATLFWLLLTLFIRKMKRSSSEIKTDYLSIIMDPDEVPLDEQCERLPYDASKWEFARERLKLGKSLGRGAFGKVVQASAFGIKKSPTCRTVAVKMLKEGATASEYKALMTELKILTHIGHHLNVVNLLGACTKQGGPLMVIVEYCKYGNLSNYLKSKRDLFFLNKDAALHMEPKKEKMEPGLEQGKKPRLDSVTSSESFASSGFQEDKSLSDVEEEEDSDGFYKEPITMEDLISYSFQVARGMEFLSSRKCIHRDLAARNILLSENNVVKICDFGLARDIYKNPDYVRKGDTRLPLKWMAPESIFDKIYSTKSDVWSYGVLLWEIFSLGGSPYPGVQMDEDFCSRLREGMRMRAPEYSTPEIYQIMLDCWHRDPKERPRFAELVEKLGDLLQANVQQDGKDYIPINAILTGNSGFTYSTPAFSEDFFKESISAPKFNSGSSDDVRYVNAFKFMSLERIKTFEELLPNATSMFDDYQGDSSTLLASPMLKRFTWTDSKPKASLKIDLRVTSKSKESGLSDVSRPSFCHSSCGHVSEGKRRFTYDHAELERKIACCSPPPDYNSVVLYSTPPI
Serine/threonine-protein kinase B-raf (Homo sapiens), P15056 [V600E], sequence (P15056 whole entry V600E, the tested form may be a part): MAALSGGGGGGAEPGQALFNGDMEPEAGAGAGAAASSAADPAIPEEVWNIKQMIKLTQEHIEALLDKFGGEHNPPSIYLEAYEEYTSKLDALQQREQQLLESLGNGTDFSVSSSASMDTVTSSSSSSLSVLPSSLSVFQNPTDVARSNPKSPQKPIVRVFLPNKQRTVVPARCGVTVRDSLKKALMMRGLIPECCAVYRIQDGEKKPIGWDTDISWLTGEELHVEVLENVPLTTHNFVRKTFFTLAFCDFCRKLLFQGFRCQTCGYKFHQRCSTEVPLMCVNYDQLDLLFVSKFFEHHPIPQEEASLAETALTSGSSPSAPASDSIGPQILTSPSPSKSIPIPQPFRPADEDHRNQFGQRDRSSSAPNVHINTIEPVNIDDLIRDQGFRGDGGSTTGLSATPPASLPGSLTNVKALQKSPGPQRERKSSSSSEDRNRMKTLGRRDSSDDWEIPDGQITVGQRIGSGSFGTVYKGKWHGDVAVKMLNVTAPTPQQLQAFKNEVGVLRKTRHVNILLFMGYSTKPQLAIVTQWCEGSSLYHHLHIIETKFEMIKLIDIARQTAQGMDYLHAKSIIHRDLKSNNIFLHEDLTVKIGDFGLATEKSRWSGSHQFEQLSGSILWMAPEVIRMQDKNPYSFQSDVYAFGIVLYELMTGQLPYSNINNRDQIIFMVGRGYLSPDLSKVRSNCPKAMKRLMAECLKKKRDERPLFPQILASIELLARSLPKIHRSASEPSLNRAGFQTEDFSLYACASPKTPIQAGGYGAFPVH
Tyrosine-protein kinase Lck (Homo sapiens), sequence (P06239 2-509 limits assumed): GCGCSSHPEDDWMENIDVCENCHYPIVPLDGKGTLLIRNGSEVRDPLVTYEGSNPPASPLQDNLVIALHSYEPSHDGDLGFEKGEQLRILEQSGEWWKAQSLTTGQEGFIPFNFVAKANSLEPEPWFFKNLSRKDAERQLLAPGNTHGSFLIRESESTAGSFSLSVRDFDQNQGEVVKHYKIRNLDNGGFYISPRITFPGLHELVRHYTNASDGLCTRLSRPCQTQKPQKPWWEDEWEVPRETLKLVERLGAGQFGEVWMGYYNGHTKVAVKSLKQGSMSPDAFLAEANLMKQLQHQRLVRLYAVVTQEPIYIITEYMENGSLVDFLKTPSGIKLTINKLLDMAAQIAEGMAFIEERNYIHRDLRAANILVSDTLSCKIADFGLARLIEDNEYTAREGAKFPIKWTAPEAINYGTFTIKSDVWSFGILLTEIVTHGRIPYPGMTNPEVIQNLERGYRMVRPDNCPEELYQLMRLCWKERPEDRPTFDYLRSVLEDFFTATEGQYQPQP
Serine/threonine-protein kinase PAK 2 (Homo sapiens), sequence (Q13177 whole entry, the tested form may be a part): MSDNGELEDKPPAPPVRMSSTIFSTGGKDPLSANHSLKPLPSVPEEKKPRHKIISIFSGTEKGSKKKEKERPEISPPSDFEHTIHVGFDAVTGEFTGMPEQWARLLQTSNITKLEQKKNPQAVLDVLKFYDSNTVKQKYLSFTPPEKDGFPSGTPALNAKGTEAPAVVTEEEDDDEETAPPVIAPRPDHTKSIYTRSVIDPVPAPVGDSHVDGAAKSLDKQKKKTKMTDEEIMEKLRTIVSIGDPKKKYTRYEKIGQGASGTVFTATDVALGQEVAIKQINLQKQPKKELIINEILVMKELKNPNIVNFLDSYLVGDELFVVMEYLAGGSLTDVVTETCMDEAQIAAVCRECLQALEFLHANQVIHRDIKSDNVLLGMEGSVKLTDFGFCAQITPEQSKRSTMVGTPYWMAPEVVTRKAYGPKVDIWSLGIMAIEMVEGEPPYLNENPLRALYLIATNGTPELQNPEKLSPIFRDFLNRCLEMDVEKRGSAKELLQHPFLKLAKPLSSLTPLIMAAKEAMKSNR
Calcium/calmodulin-dependent protein kinase type IV (Homo sapiens), sequence (Q16566 whole entry, the tested form may be a part): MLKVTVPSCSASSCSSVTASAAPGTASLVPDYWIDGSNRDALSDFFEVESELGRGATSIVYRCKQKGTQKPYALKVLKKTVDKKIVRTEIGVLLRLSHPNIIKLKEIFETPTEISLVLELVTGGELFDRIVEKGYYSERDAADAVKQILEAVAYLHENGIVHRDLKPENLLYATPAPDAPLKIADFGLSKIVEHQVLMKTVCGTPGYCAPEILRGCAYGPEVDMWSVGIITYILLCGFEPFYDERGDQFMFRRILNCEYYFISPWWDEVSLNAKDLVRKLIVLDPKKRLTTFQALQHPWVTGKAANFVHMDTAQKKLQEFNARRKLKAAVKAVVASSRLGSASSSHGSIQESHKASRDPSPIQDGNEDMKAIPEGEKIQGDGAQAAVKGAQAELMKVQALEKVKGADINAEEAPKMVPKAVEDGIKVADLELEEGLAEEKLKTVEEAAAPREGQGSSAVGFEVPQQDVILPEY
Phosphatidylinositol 4,5-bisphosphate 3-kinase catalytic subunit alpha isoform (Homo sapiens), P42336 [H1047L], sequence (P42336 whole entry H1047L, the tested form may be a part, canonical isoform): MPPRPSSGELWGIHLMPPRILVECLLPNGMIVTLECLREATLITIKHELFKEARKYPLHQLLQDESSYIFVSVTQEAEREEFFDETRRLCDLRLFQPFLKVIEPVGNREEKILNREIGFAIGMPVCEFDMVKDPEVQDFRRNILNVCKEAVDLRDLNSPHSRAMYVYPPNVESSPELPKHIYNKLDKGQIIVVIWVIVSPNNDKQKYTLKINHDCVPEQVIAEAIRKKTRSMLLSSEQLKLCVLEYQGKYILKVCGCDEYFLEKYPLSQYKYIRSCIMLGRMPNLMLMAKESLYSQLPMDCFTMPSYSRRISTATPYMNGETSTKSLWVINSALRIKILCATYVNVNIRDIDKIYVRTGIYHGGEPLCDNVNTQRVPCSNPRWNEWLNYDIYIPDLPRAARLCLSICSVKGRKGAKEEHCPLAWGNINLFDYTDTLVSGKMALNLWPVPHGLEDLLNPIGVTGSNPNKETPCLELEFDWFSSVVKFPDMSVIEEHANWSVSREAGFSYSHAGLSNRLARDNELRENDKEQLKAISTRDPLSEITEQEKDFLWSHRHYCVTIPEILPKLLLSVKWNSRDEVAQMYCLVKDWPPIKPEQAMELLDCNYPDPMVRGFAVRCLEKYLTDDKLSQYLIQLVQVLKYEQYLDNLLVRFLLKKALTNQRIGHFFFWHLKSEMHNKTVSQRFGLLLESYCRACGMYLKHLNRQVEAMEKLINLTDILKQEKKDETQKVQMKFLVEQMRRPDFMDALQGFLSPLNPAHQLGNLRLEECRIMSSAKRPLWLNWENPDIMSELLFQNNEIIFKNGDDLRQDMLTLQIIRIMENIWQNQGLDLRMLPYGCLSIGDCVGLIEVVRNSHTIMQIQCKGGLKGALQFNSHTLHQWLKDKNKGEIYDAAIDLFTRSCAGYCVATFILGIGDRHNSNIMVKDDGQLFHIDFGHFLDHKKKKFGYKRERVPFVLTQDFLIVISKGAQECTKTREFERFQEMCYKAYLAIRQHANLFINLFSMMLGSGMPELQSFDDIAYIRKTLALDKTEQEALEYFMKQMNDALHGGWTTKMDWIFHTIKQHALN
Cyclin-dependent kinase 2 homolog (Plasmodium falciparum (isolate 3D7)), sequence (P61075 whole entry, the tested form may be a part): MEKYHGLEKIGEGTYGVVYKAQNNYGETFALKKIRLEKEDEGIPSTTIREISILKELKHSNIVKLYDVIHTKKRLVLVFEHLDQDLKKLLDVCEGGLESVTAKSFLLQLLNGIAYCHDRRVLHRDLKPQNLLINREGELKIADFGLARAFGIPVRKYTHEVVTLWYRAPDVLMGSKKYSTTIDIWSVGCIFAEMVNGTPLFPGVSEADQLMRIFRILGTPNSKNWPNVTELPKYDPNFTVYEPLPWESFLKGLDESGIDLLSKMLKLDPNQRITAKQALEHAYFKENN

C=CC(=O)Nc1cc(Nc2cc(-c3cccc(NC(=O)c4ccc(C(C)(C)C)cc4)c3C)cn(C)c2=O)ccc1C(=O)N1CCOCC1
Activity [1]: 100% | Activity [2]: 100% | Activity [3]: 100% | Activity [4]: 77% | Activity [5]: 79% | Activity [6]: 92% | Activity [7]: 96% | Activity [8]: 92% | Activity [9]: 81% | Activity [10]: 56% | Activity [11]: 100% | Activity [12]: 100% | Activity [13]: 88% | Activity [14]: 100% | Activity [15]: 96% | Activity [16]: 97% | GI50 (U2932): 2400 nM | Activity [17]: 95% | Activity [18]: 97% | Activity [19]: 97% | Activity [20]: 81% | Activity [21]: 100% | Activity [22]: 92% | Activity [23]: 100% | Activity [24]: 97%
